{
  "source": "ChEMBL document CHEMBL4049385",
  "about": "(Bioorg Med Chem Lett, 2017)",
  "key": {"[1]": {"target": "T1, Oxysterols receptor LXR-alpha (Homo sapiens) (UniProt Q13133)", "T1 sequence (whole entry)": "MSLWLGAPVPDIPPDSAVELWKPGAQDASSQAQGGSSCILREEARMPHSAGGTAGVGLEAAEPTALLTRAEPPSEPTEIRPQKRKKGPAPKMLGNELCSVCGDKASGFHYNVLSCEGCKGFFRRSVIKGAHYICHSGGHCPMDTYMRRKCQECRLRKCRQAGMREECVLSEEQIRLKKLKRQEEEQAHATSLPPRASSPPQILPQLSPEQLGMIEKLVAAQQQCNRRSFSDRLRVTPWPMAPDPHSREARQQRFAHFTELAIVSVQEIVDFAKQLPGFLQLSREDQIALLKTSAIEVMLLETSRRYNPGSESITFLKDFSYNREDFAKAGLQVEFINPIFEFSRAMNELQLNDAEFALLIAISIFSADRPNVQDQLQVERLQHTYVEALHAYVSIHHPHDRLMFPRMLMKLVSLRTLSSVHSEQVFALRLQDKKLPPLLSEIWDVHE", "test": "Agonist activity at recombinant human GAL4-DBD-fused LXRalpha-LBD expressed in HEK293T cells at 10 to 20 uM in presence of RXR-antagonist HX531 measured after 12 to 14 hrs by dual-glo luciferase reporter gene assay", "assay_type": "cell-based", "conditions": "HEK-293T"}, "[2]": {"target": "T2, Oxysterols receptor LXR-alpha (Homo sapiens, UniProt Q13133)", "T2 sequence (Q13133 whole entry)": "T1 sequence (whole entry)", "test": "Partial agonist activity at recombinant human GAL4-DBD-fused LXRalpha-LBD expressed in HEK293T cells measured after 12 to 14 hrs by dual-glo luciferase reporter gene assay", "assay_type": "cell-based, HEK-293T"}, "[3]": {"target": "T3, Oxysterols receptor LXR-beta (Homo sapiens, UniProt P55055)", "T3 sequence (P55055 whole entry)": "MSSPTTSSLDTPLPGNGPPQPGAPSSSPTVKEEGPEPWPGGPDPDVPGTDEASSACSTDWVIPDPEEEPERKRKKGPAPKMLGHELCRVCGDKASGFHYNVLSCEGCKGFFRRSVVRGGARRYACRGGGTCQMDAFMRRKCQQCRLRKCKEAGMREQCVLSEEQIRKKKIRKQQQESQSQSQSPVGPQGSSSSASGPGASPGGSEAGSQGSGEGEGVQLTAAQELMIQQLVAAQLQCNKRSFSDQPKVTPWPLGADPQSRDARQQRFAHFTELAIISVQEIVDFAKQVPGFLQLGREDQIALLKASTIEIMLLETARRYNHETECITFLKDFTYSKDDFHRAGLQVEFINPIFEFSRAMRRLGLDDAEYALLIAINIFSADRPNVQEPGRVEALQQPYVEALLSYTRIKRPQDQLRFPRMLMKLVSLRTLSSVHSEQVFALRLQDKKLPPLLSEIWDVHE", "test": "Partial agonist activity at recombinant human GAL4-DBD-fused LXRbeta-LBD expressed in HEK293T cells measured after 12 to 14 hrs by dual-glo luciferase reporter gene assay", "assay_type": "cell-based, HEK-293T"}, "[4]": {"target": "T1, Oxysterols receptor LXR-alpha (Homo sapiens)", "test": "Partial agonist activity at recombinant human GAL4-DBD-fused LXRalpha-LBD expressed in HEK293T cells at 10 uM measured after 12 to 14 hrs by dual-glo luciferase reporter gene assay relative to T0901317", "assay_type": "cell-based", "conditions": "HEK-293T"}, "[5]": {"target": "T1, Oxysterols receptor LXR-alpha (Homo sapiens)", "test": "Partial antagonist activity at recombinant human GAL4-DBD-fused LXRalpha-LBD expressed in HEK293T cells assessed as inhibition of WAY252623-induced receptor activation at 1 uM measured after 12 to 14 hrs by dual-glo luciferase reporter gene assay", "assay_type": "cell-based", "conditions": "HEK-293T"}, "[6]": {"target": "T4, Oxysterols receptor LXR-beta (Homo sapiens) (UniProt P55055)", "T4 sequence (whole entry)": "T3 sequence (P55055 whole entry)", "test": "Partial agonist activity at recombinant human GAL4-DBD-fused LXRbeta-LBD expressed in HEK293T cells at 10 uM measured after 12 to 14 hrs by dual-glo luciferase reporter gene assay relative to T0901317", "assay_type": "cell-based", "conditions": "HEK-293T"}, "[7]": {"target": "T1, Oxysterols receptor LXR-alpha (Homo sapiens)", "test": "Partial antagonist activity at recombinant human GAL4-DBD-fused LXRalpha-LBD expressed in HEK293T cells assessed as inhibition of GW3965-induced receptor activation at 1 uM measured after 12 to 14 hrs by dual-glo luciferase reporter gene assay", "assay_type": "cell-based", "conditions": "HEK-293T"}, "[8]": {"target": "T1, Oxysterols receptor LXR-alpha (Homo sapiens)", "test": "Agonist activity at recombinant human GAL4-DBD-fused LXRalpha-LBD expressed in HEK293T cells at 1 uM in presence of LXR-agonist 22(R)-hydroxycholesterol measured after 12 to 14 hrs by dual-glo luciferase reporter gene assay", "assay_type": "cell-based", "conditions": "HEK-293T"}, "[9]": {"test": "Cmax in patient with solid tumor at 300 mg/m2, po administered once daily", "assay_type": "ADME, organism-based", "parameters": "route oral", "conditions": "human, in vivo"}, "[10]": {"tested_on": "HEK-293T", "test": "Effect on recombinant firefly luciferase activity expressed in HEK293T cells at 1 uM after 12 to 14 hrs by luminescence assay", "assay_type": "ADME, cell-based", "conditions": "human"}, "[11]": {"tested_on": "HEK-293T", "test": "Effect on recombinant firefly luciferase activity expressed in HEK293T cells at 10 uM after 12 to 14 hrs by luminescence assay", "assay_type": "ADME, cell-based", "conditions": "human"}, "[12]": {"target": "T1, Oxysterols receptor LXR-alpha (Homo sapiens)", "test": "Agonist activity at recombinant human GAL4-DBD-fused LXRalpha-LBD expressed in HEK293T cells at 10 uM in presence of LXR-agonist 22(R)-hydroxycholesterol measured after 12 to 14 hrs by dual-glo luciferase reporter gene assay", "assay_type": "cell-based", "conditions": "HEK-293T"}, "[13]": {"test": "Cmax in chronic hand eczema patient at 30 mg, po administered once daily for 24 weeks", "assay_type": "ADME, organism-based", "parameters": "dose 30 mg, route oral", "conditions": "human, in vivo"}, "[14]": {"target": "T1, Oxysterols receptor LXR-alpha (Homo sapiens)", "test": "Partial antagonist activity at recombinant human GAL4-DBD-fused LXRalpha-LBD expressed in HEK293T cells assessed as inhibition of WAY252623-induced receptor activation at 10 uM after 12 to 14 hrs by dual-glo luciferase reporter gene assay", "assay_type": "cell-based", "conditions": "HEK-293T"}, "[15]": {"tested_on": "Homo sapiens", "test": "Toxicity in chronic hand eczema patient assessed as increase in serum cholesterol level at 30 mg, po administered once daily for 24 weeks relative to control", "assay_type": "organism-based", "conditions": "in vivo, 4032 h"}, "[16]": {"tested_on": "Homo sapiens", "test": "Toxicity in chronic hand eczema patient assessed as increase in triglyceride level at 30 mg, po administered once daily for 24 weeks relative to control", "assay_type": "organism-based", "conditions": "in vivo, 4032 h"}, "[17]": {"target": "T1, Oxysterols receptor LXR-alpha (Homo sapiens)", "test": "Agonist activity at recombinant human GAL4-DBD-fused LXRalpha-LBD expressed in HEK293T cells at 10 uM in presence of RXR-antagonist HX531 measured after 12 to 14 hrs by dual-glo luciferase reporter gene assay", "assay_type": "cell-based", "conditions": "HEK-293T"}, "[18]": {"target": "T1, Oxysterols receptor LXR-alpha (Homo sapiens)", "test": "Partial antagonist activity at recombinant human GAL4-DBD-fused LXRalpha-LBD expressed in HEK293T cells assessed as inhibition of GW3965-induced receptor activation at 10 uM after 12 to 14 hrs by dual-glo luciferase reporter gene assay", "assay_type": "cell-based", "conditions": "HEK-293T"}},
  "note": "The source made the active and inactive calls. The rule behind the calls is not given here.",
  "data": [
    {"smiles": "CC(C)CC[C@@H](O)[C@@H](C)[C@H]1CC[C@H]2[C@@H]3CC=C4C[C@@H](O)CC[C@]4(C)[C@H]3CC[C@]12C", "values": [
      {"measurement": "Activity", "setting": "[1]", "result": "Active"}
    ]},
    {"smiles": "Fc1ccc(-c2c3cccc(C(F)(F)F)c3nn2Cc2ccc(F)cc2Cl)cc1", "note": "[LXR-623]", "values": [
      {"measurement": "EC50", "setting": "[2]", "result": 1440, "unit": "nM"},
      {"measurement": "EC50", "setting": "[3]", "result": 900, "unit": "nM"}
    ]},
    {"smiles": "C=C(c1ccc(C(=O)O)cc1)c1cc2c(cc1C)C(C)(C)CCC2(C)C", "note": "[BEXAROTENE]", "values": [
      {"measurement": "EC50", "setting": "[2]", "result": 196, "unit": "nM"},
      {"measurement": "fold change (FC)", "setting": "[4]", "result": 1.82},
      {"measurement": "inhibition", "setting": "[5]", "result": "Active"},
      {"measurement": "fold change (FC)", "setting": "[6]", "result": 2.23},
      {"measurement": "inhibition", "setting": "[7]", "result": "Active"},
      {"measurement": "EC50", "setting": "[3]", "result": 434, "unit": "nM"},
      {"measurement": "Activity", "setting": "[8]", "result": "Active"},
      {"measurement": "Cmax", "setting": "[9]", "result": 3390, "unit": "nM"},
      {"measurement": "Activity", "setting": "[10]", "result": "Non-Toxic"}
    ]},
    {"smiles": "CC1=C(/C=C/C(C)=C\\C=C\\C(C)=C\\C(=O)O)C(C)(C)CCC1", "note": "[ALITRETINOIN]", "values": [
      {"measurement": "Activity", "setting": "[11]", "result": "Non-Toxic"},
      {"measurement": "Activity", "setting": "[12]", "result": "Active"},
      {"measurement": "Cmax", "setting": "[13]", "result": 810, "unit": "nM"},
      {"measurement": "inhibition", "setting": "[14]", "result": "Active"},
      {"measurement": "Activity", "setting": "[15]", "result": 14, "unit": "%"},
      {"measurement": "fold change (FC)", "setting": "[4]", "result": 1.39},
      {"measurement": "Activity", "setting": "[16]", "result": 8, "unit": "%"},
      {"measurement": "Activity", "setting": "[17]", "result": "Active"},
      {"measurement": "inhibition", "setting": "[18]", "result": "Active"},
      {"measurement": "fold change (FC)", "setting": "[6]", "result": 1.68},
      {"measurement": "EC50", "setting": "[3]", "result": 1730, "unit": "nM"}
    ]}
  ]
}
